The target of assay [1] is T1, ggTas2r1 (Gallus gallus, UniProt Q2AB83).
T1 construct: gene TAS2R40; full-length receptor with in-frame N-terminal sst3-tag and C-terminal hsv-tag in pcDNA5/FRT; transient in HEK 293T stably expressing chimeric Galpha16gust44
T1 sequence (Q2AB83 1-311): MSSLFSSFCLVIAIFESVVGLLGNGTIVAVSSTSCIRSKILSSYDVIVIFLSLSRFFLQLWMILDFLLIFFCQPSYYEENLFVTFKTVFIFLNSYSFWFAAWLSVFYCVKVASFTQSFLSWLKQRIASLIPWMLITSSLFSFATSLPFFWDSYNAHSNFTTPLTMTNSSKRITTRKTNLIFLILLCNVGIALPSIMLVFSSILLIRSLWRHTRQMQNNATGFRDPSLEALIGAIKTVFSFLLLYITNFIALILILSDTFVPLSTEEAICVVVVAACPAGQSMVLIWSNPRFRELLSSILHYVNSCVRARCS
Nature of the assay: FLIPR calcium mobilization, Fluo4-AM. It is filed as cell-based. To be noted: agonist, HEK 293T with Galpha16gust44. (In general: A change in cytosolic calcium serves as a functional read-out for many receptors and channels.)

The target of assay [2] is T1, ggTas2r1. Nature of the assay: FLIPR calcium mobilization, Fluo4-AM. It is filed as cell-based. Particulars: agonist; HEK 293T with Galpha16gust44; 2.5 mM probenecid in dye loading.

Each structure is given as a SMILES string.

In the case of `C=C[C@H]1CN2CC[C@H]1C[C@H]2[C@H](O)c1ccnc2ccc(OC)cc12` [quinine], the “dose-response ΔF/F” value in assay [1] (tested as quinine sulfate) is given as “subjected to calcium-mobilization assays using different concentrations of quinine sulfate”.

Consider `O=c1ccc2ccccc2o1` [coumarin], for which the “dose-response ΔF/F” value in assay [1] was “The small compound coumarin is only a weak agonist for ggTas2r1”.

Consider `CN(C)CCC(c1ccc(Cl)cc1)c1ccccn1` (stereo not drawn) [chlorpheniramine], for which, in assay [1], the “dose-response ΔF/F” value is “The functional data for receptor constructs stimulated with chlorpheniramine ranges from wild-type like receptor”.

Take `C=C[C@H]1CN2CC[C@H]1C[C@@H]2[C@@H](O)c1ccnc2ccc(OC)cc12` [quinidine]: the threshold concentration in assay [2] is on record as ~ 0.3 µM.

Regarding `O=C(N[C@H](CO)[C@H](O)c1ccc([N+](=O)[O-])cc1)C(Cl)Cl` [chloramphenicol], in assay [1], the “dose-response ΔF/F” value is recorded as “at high chloramphenicol concentration the maximal signal amplitude is comparable to the native receptor”.

For the molecule `OC(CCCN1CCCCC1)(c1ccccc1)c1ccccc1` [diphenidol], in assay [1], the “dose-response ΔF/F” value is on record as “variable decrease in responses compared to the wild-type ggTas2r1 upon stimulation with diphenidol”.
